Key:
[1] = target: T1, Gonadotropin-releasing hormone receptor (Homo sapiens, UniProt P30968); experiment: In vitro inhibition of GnRH-stimulated phosphatidyl inositol hydrolysis in CHO cells stably expressing gonadotropin-releasing hormone receptor.; format: functional, cell-based
T1 sequence (P30968 whole entry): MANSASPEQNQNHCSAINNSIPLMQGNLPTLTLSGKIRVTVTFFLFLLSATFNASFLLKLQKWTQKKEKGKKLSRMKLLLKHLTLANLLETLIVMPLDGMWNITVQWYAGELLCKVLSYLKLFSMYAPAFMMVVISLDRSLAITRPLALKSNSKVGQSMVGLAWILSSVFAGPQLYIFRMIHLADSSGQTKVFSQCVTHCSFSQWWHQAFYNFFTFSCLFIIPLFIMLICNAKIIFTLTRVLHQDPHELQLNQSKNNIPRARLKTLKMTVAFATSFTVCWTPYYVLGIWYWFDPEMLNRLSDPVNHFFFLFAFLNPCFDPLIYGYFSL

[2] = target: T1, Gonadotropin-releasing hormone receptor; experiment: In vitro inhibitory activity against […] CHO cells stably expressing human gonadotropin-releasing hormone receptor; format: cell-based
[3] = target: T2, Gonadotropin-releasing hormone receptor (Rattus norvegicus, UniProt P30969); experiment: In vitro inhibition of GnRH stimulated release of luteinizing hormone from the rat primary pituitary cells.; format: functional, cell-based, Pituitary gland cell
T2 sequence (P30969 whole entry): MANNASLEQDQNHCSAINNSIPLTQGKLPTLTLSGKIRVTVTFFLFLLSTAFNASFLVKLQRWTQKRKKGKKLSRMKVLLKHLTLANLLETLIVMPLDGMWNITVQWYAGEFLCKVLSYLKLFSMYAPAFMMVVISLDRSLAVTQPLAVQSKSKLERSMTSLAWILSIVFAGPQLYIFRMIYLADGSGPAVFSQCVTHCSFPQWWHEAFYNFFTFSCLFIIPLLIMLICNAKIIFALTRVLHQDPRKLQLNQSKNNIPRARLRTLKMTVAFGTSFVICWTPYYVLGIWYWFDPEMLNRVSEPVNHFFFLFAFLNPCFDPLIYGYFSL

Row | Compound | IC50 [1] [nM] | IC50 [2] [nM] | IC50 [3] [nM]
1 | Cc1cc(C)cc(-c2c(O)nc3cc(Cl)c(C(=O)Nc4cnccn4)cc3c2OCCC2CCCCN2)c1 (stereo unspecified) | 16 | 7 | 2200
2 | Cc1cc(C)cc(-c2c(O)nc3cc(Cl)c(C(=O)Nc4cc(Cl)ncn4)cc3c2OCCC2CCCCN2)c1 (stereo unspecified) | 14.5 | 1.4 | 79.2
3 | Cc1cc(C)cc(-c2c(O)nc3cc(Cl)c(C(=O)Nc4ccnc(C)n4)cc3c2OCCC2CCCCN2)c1 (stereo unspecified) | 33.3 | 1.8 | 87.2
4 | CCC(C)N(C(=O)c1cc2c(OCCC3CCCCN3)c(-c3cc(C)cc(C)c3)c(O)nc2cc1Cl)C(C)CC (stereo unspecified) | – | – | > 1280
5 | Cc1cc(C)cc(-c2c(O)nc3cc(Cl)c(C(=O)Nc4ccccn4)cc3c2OCCC2CCCCN2)c1 (stereo unspecified) | 19 | 3.6 | 1260
6 | Cc1cc(C)cc(-c2c(O)nc3cc(Cl)c(C(=O)Nc4ccnc(C5CC5)n4)cc3c2OCCC2CCCCN2)c1 (stereo unspecified) | 250 | 15 | –
7 | COc1nccc(NC(=O)c2cc3c(OCCC4CCCCN4)c(-c4cc(C)cc(C)c4)c(O)nc3cc2Cl)n1 (stereo unspecified) | 133 | 9 | –
8 | Cc1cc(C)cc(-c2c(O)nc3cc(Cl)c(C(=O)Nc4cc(C)on4)cc3c2OCCC2CCCCN2)c1 (stereo unspecified) | 77.5 | 2.3 | 513
9 | Cc1cc(C)cc(-c2c(O)nc3cc(Cl)c(C(=O)Nc4nncs4)cc3c2OCCC2CCCCN2)c1 (stereo unspecified) | 22 | 32 | –
10 | Cc1cc(C)cc(-c2c(O)nc3cc(Cl)c(C(=O)Nc4nc[nH]n4)cc3c2OCCC2CCCCN2)c1 (stereo unspecified) | 775 | 320 | > 1280
11 | Cc1cc(C)cc(-c2c(O)nc3cc(Cl)c(C(=O)NCc4ccc5c(c4)OCO5)cc3c2OCCC2CCCCN2)c1 (stereo unspecified) | 591 | 110 | > 1280
12 | Cc1cc(C)cc(-c2c(O)nc3cc(Cl)c(C(=O)Nc4cnsn4)cc3c2OCC[C@@H]2CCCCN2)c1 | 5.9 | 0.8 | 23.9
13 | Cc1cc(C)cc(-c2c(O)nc3cc(Cl)c(C(=O)Nc4ccncn4)cc3c2OCC[C@@H]2CCCCN2)c1 | 5 | 0.9 | 96.5
14 | Cc1cc(C)cc(-c2c(O)nc3cc(Cl)c(C(=O)Nc4nnc(C)s4)cc3c2OCCC2CCCCN2)c1 (stereo unspecified) | – | 28 | > 1280
15 | Cc1cc(C)cc(-c2c(O)nc3cc(Cl)c(C(=O)Nc4cc(C)nc(C)n4)cc3c2OCCC2CCCCN2)c1 (stereo unspecified) | 486 | 40 | –
16 | Cc1cc(C)cc(-c2c(O)nc3cc(Cl)c(C(=O)Nc4cccnc4)cc3c2OCCC2CCCCN2)c1 (stereo unspecified) | 130 | 32 | > 1280
17 | Cc1cc(C)cc(-c2c(O)nc3cc(Cl)c(C(=O)Nc4cc(C)ncn4)cc3c2OCCC2CCCCN2)c1 (stereo unspecified) | 44 | 2.8 | 167
18 | CCn1nccc1NC(=O)c1cc2c(OCCC3CCCCN3)c(-c3cc(C)cc(C)c3)c(O)nc2cc1Cl (stereo unspecified) | 977 | 860 | –
19 | Cc1cc(C)cc(-c2c(O)nc3cc(Cl)c(C(=O)Nc4cc(C)ns4)cc3c2OCCC2CCCCN2)c1 (stereo unspecified) | 21.5 | 2.9 | 521
20 | Cc1cc(C)cc(-c2c(O)nc3cc(Cl)c(C(=O)Nc4ccncn4)cc3c2OCCC2CCCCN2)c1 (stereo unspecified) | 8.3 | 3.2 | 240
21 | Cc1cc(C)cc(-c2c(O)nc3cc(Cl)c(C(=O)Nc4ncccn4)cc3c2OCCC2CCCCN2)c1 (stereo unspecified) | > 3200 | 290 | > 1280
22 | Cc1cc(C)cc(-c2c(O)nc3cc(Cl)c(C(=O)Nc4cnsn4)cc3c2OCCC2CCCCN2)c1 (stereo unspecified) | 6.4 | 2 | 292
23 | Cc1cc(C)cc(-c2c(O)nc3cc(Cl)c(C(=O)Nc4ccc(N(C)C)cc4)cc3c2OCCC2CCCCN2)c1 (stereo unspecified) | 360 | 10.9 | –
24 | CCN(CC)C(=O)c1cc2c(OCCC3CCCCN3)c(-c3cc(C)cc(C)c3)c(O)nc2cc1Cl (stereo unspecified) | – | – | > 1280
25 | Cc1cc(C)cc(-c2c(O)nc3cc(Cl)c(C(=O)Nc4ccncc4)cc3c2OCCC2CCCCN2)c1 (stereo unspecified) | 10.6 | 3.8 | 1090
26 | Cc1cc(C)cc(-c2c(O)nc3cc(Cl)c(C(=O)Nc4cc(C)no4)cc3c2OCCC2CCCCN2)c1 (stereo unspecified) | – | 23 | > 1280

Reference: ChEMBL document CHEMBL1133406, “Potent antagonists of gonadotropin releasing hormone receptors derived from quinolone-6-carboxamides” (Bioorg Med Chem Lett, 2000)
